Experimental data as given in patent US20170226142A1 (Achillion Pharmaceuticals, Inc., priority 2014, published 2017).
Like-named read-outs stand apart in the source and are kept apart here.

Molecular target: T1, Human factor D (Homo sapiens, UniProt P00746)
T1 construct: purified from human serum; purchased Complement Technology, Inc; host or cells: human serum
Test: Human Factor D Assay (Factor D inhibition assay)
Assay type: biochemical
Procedure: Routine changes in starting materials and reaction conditions, readily apparent to those of skill in the art, were used to make the particular compounds disclosed in Table 2.
Human factor D (purified from human serum, Complement Technology, Inc.) at 80 nM final concentration is incubated with test compound at various concentrations for 5 minutes at room temperature in 50 mM Tris, 1M NaCl, pH 7.5. A synthetic substrate Z-L-Lys-SBzl and DTNB (Ellman's reagent) are added to final concentrations of 100 µM each. The increase in color is recorded at OD405 nm in a microplate in kinetic mode over 30 minutes with 30 second time points in a […]. IC50 values are calculated by non-linear regression from the percentage of inhibition of complement factor D activity as a function of test compound concentration.

[1] = Factor D 80 nM, substrate Z-L-Lys-SBzl, DTNB, pH 7.5, read-out: IC50

T1 sequence (P00746 26-253): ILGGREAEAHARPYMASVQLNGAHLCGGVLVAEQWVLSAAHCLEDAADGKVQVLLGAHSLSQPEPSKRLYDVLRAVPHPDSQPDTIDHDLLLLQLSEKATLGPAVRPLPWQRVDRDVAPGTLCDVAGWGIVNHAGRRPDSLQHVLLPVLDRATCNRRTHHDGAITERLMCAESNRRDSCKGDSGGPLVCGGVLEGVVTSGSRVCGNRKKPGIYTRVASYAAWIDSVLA

Compound	IC50 [1]	further results
CC(=O)c1nn(CC(=O)N2C[C@H](F)C[C@H]2C(=O)Nc2cccc(SC(F)(F)F)c2)c2cnccc12 [Compound 53, (2S,4R)-1-(2-(3-acetyl-1H-pyrazolo[3,4-c]pyridin-1-yl)acetyl)-4-fluoro-N-(3-((trifluoro-methyl)thio)phenyl)pyrrolidine-2-carboxamide]	< 1 µM	–
O=C(NCc1cccc(Cl)c1F)[C@@H]1C[C@@H](F)CN1C(=O)Cn1nc(P(=O)(O)O)c2ccncc21 [Compound 65]	> 10 µM	–
CCOP(=O)(OCC)c1ccc2c(C(C)=O)cn(CC(=O)N3[C@@H]4CCC[C@@H]4C[C@H]3C(=O)NCc3cccc(Cl)c3F)c2c1 [Compound 76, diethyl 1-(2-((2S,3aR,6aR)-2-((3-chloro-2-fluorobenzyl)carbamoyl)-hexahydrocyclopenta[b]pyrrol-1(2H)-yl)-2-oxoethyl)-3-acetyl-1H-indol-6-ylphosphonate]	–	IC50 (read-out: IC50): < 1 µM
C=CC1C[C@]1(NC(=O)[C@@H]1C[C@@H](F)CN1C(=O)Cn1cc(C(C)=O)c2ccc(O)cc21)C(=O)NS(=O)(=O)C1CC1 (stereo partly drawn) [Compound 88, (2S,4R)-1-(2-(3-acetyl-6-hydroxy-1H-indol-1-yl)acetyl)-N-((1R)-1-(cyclopropylsulfonylcarbamoyl)-2-vinylcyclopropyl)-4-fluoropyrrolidine-2-carboxamide]	1 to 10 µM	–
CC(=O)c1cn(CC(=O)N2CCOC[C@H]2C(=O)NCc2cccc(Cl)c2F)c2cc(C(=O)O)ccc12 [Compound 159, (S)-1-(2-(3-((3-chloro-2-fluorobenzyl)carbamoyl)morpholino)-2-oxoethyl)-3-acetyl-1H-indole-6-carboxylic acid]	< 1 µM	–
CC(=O)c1cn(CC(=O)N2C[C@H](F)C[C@H]2C(=O)NCc2cccc(Cl)c2F)c2ccc(C#Cc3cccc(OC(F)(F)F)c3F)cc12 [Compound 177, (2S,4R)-1-(2-(3-acetyl-5-((2-fluoro-3-(trifluoromethoxy)phenyl)ethynyl)-1H-indol-1-yl)acetyl)-N-(3-chloro-2-fluorobenzyl)-4-fluoropyrrolidine-2-carboxamide]	1 to 10 µM	–
CC(=O)c1cn(CC(=O)N2C[C@H](F)C[C@H]2C(=O)NCc2cccc(Cl)c2F)c2ccc(NC(=O)OC3CC3)cc12 [Compound 186, cyclopropyl (3-acetyl-1-(2-((2S,4R)-2-((3-chloro-2-fluorobenzyl)carbamoyl)-4-fluoropyrrolidin-1-yl)-2-oxoethyl)-1H-indol-5-yl)carbamate]	< 1 µM	–
NC(=O)c1nn(CC(=O)N2C[C@H](F)C[C@H]2C(=O)Nc2cccc(-c3ccccc3Cl)c2F)c2cc(C(=O)NS(=O)(=O)C3CC3)ccc12 [Compound 212]	–	IC50 (pH 7.5, read-out: IC50): < 1 µM
CC(=O)c1cn(CC(=O)N2C[C@H](F)C[C@H]2C(=O)Nc2cccc(Oc3ccccc3)c2)c2cc(OCP(=O)(O)O)ccc12 [Compound 232, (((3-acetyl-1-(2-((2S,4R)-4-fluoro-2-((3-phenoxyphenyl)carbamoyl)pyrrolidin-1-yl)-2-oxoethyl)-1H-indol-6-yl)oxy)methyl)phosphonic acid]	–	IC50: 1 to 10 µM
